Measured values reported in patent US20230129034A1, “TREATMENT OF DISEASE WITH ESTERS OF SELECTIVE RXR AGONISTS” (Io Therapeutics, Inc., priority 2017, published 2023).
“Also recorded” adds a separate entry of the source.

Legend:
Th17 cells = assay: Th17 cell differentiation / IL-17 production in vitro; format: cell-based
[1] = test system: CNS infiltrating leukocytes in C57BL/6 (B6) mice; assay: CNS infiltrating cells in EAE B6 mice (flow cytometry, day 20); format: in vivo; settings: day 20 after immunization
Procedure: To determine whether a RXR agonist can reduce central nervous system (CNS) infiltrating cells, C57BL/6 (B6) mice were treated as described in Example 6. On day 20 after immunization, mice were sacrificed and perfused with phosphate buffered saline (PBS). Brain and spinal cord tissue was isolated, digested with DNase and LIBERASE DL® (Roche Diagnostics, Indianapolis, IN) for 30 minutes, and homogenized through 70 micron nylon mesh filters. Resulting cells were placed over a Percoll gradient to remove myelin. The remaining cells (microglia and CNS infiltrating cells) were counted, stained for molecules of interest, and run on a flow cytometer. Based on the frequencies obtained by FACS of these cell populations, total cell numbers of CNS infiltrating leukocytes expressing CD45, including CD4^+ T cells and CD11c^+ CD11b^+ myeloid dendritic cells (DC), were calculated.

RXRβ [2] = target: T1, RXRβ (Homo sapiens, UniProt P28702); assay: RXR homodimer transactivation assay (rCRBPII/RXRE-tk-Luc reporter, CV-1 cells); format: cell-based
T1 construct: an expression construct including a full length RXRα, RXRβ, or RXRy; expressed in transfected cells; host or cells: CV-1
T1 sequence (P28702 1-533): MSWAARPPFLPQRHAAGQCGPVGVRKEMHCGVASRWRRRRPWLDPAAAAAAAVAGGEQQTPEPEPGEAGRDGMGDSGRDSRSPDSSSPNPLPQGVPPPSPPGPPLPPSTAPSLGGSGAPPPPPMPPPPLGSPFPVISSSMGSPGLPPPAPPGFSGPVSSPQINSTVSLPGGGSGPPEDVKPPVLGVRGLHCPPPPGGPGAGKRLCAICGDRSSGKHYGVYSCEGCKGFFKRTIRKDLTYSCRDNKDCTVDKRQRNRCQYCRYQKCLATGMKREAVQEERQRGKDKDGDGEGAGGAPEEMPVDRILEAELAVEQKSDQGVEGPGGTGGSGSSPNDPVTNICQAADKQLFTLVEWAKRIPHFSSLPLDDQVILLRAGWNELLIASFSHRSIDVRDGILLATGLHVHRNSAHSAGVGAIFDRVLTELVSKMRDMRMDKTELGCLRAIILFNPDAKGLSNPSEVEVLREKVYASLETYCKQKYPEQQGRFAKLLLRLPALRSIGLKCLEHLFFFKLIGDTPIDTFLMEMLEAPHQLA
Description: (§1) Data are mean values ± SE from five independent experiments.

Treg cells = assay: Treg cell differentiation in in vitro cell culture; format: cell-based
FXR/RXR = target: T2, FXR/RXR (Homo sapiens, UniProt P19793); assay: Permissive heterodimer transactivation assay, CV-1 cells, 3x(IBABP/IRI)-tk-Luc; format: cell-based; settings: 20 hr, luciferase vs GW4064
T2 construct: expressed in transfected cells; host or cells: CV-1
T2 sequence (Q96RI1 whole entry partner, one chain of several): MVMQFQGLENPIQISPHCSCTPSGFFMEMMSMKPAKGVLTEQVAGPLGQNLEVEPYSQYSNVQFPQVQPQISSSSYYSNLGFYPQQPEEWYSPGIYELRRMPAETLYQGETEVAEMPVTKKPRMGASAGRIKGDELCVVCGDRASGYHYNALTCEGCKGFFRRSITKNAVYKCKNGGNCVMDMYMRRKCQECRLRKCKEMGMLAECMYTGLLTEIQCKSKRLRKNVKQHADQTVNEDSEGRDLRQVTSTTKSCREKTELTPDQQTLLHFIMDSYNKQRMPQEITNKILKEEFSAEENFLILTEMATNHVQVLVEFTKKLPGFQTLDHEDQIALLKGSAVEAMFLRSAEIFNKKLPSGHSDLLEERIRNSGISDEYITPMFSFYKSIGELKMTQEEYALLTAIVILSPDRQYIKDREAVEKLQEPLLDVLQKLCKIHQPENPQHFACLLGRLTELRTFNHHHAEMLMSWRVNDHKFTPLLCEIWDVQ
Description: For PPARy: CV-1 cells were transfected with 3x(rAOX/DR1)-tk-Luc reporter gene and an expression vector for PPARy. For FXR:CV-1 cells were transfected with 3x(IBABP/IRI)-tk-Luc reporter gene and vectors for FXR and RXRα. For LXR:CV-1 cells were transfected with 3x(PLTP/LXRE)-tk-Luc reporter gene with vectors for LXRα or LXRβ. For Nurr1: COS7 cells were transfected with 3xNBRE-tk-luc reporter gene and full length Nurr-1 with or without full-length RXRα plasmid. […] Luciferase data were normalized to co-transfected β-gal activity. Luciferase activity was expressed as percent of maximal activity obtained using specific agonists. Rosiglitazone (PPARy), GW4064 (FXR), T0901317 (LXR).

RARγ = target: T3, RARγ (Homo sapiens, UniProt P13631); assay: RAR transactivation assay (ER-RAR fusion, ERE-tk-Luc reporter, CV-1 cells); format: cell-based; settings: 20 hours, luciferase activity
T3 construct: expressed in transfected cells; host or cells: CV-1
T3 sequence (P13631 185-419 limits assumed, species assumed): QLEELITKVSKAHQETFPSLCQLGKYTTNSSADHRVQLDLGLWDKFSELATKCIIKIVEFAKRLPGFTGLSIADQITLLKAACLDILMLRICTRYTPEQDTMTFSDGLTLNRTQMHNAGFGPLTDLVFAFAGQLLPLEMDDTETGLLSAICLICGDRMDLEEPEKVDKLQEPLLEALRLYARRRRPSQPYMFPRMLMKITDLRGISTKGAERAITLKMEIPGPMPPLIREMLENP
Description: as §1

RARβ = target: T4, RARβ (Homo sapiens, UniProt P10826); assay: as above; format: cell-based; settings: 20 hours, luciferase activity
T4 construct: expressed in transfected cells; host or cells: CV-1
T4 sequence (P10826 183-417 limits assumed, species assumed): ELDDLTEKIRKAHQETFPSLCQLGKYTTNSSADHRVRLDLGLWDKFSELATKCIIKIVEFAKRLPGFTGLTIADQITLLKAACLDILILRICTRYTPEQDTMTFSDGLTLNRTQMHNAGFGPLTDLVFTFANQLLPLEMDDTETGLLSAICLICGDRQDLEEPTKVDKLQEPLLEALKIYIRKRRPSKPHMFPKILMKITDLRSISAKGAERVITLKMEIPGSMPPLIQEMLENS
Description: as §1

RXRα = target: T5, RXRα (Homo sapiens, UniProt P19793); assay: Competitive displacement of [3H]-9CRA from purified receptor; settings: 10 nM [3H]-9CRA; read-out: RXR Binding Affinity Ki (nM) RXRα
T5 construct: an expression construct including a full length RXRα, RXRβ, or RXRy; expressed in transfected cells; host or cells: CV-1
T5 sequence (P19793 1-462): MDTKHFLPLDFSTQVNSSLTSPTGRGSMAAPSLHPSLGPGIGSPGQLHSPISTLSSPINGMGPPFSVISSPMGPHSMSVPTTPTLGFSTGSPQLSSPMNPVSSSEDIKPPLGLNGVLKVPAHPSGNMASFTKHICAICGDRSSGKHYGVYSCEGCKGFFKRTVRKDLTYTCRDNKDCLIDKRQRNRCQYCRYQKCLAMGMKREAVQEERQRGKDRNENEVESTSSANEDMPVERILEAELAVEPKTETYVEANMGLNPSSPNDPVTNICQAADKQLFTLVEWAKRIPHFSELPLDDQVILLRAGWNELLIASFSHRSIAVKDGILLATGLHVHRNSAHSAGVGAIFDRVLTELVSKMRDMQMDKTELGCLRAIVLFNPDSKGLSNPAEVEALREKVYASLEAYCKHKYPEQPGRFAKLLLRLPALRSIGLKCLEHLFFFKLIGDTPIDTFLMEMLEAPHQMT
Description: (§2) Standard errors (±) among independent experiments are indicated.

RXRβ [3] = target: T1, RXRβ; assay: as above; settings: 10 nM [3H]-9CRA; read-out: RXR Binding Affinity Ki (nM) RXRβ
Description: as §2

RXRγ = target: T6, RXRγ (Homo sapiens, UniProt P48443); assay: as above; settings: 10 nM [3H]-9CRA; read-out: RXR Binding Affinity Ki (nM) RXRγ
T6 construct: an expression construct including a full length RXRα, RXRβ, or RXRy; expressed in transfected cells; host or cells: CV-1
T6 sequence (P48443 1-463): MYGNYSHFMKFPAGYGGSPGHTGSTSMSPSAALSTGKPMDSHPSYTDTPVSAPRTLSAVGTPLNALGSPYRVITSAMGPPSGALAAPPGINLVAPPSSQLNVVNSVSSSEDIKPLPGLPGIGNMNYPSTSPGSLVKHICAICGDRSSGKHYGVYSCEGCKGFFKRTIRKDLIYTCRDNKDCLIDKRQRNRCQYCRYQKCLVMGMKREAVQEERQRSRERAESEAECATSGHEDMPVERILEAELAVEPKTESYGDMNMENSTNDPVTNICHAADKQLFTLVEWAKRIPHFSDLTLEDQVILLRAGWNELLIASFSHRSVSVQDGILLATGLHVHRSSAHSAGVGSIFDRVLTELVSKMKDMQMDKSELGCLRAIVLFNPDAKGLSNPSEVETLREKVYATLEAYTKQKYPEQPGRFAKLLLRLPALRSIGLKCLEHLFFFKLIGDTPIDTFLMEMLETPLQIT
Description: as §2

breast cancer cells = assay: Proliferation of breast cancer cells in vitro; format: cell-based

| Structure (SMILES) | inhibiting the differentiation of Th17 cells, relative to parent form (Th17 cells; in vitro cell culture) | infiltration of CD4+ cells into the CNS [1] | infiltration of CD11c+ CD11b+ cells (myeloid DC) into the CNS [1] | EC50 (RXRβ [2]; CV-1 cells, 20 hours, luciferase activity) [nM] | promoting the differentiation of Treg cells, relative to parent form (Treg cells; in vitro cell culture) | activation of FXR/RXR heterodimer (FXR/RXR) | EC50 (RARγ) [nM] | EC50 (RARβ) [nM] | Ki (RXRα) [nM] | Ki (RXRβ [3]) [nM] | Ki (RXRγ) [nM] | production of IL-17 (Th17 cells; 1 nM) | EC90 (RXRβ [2]; CV-1, read-out: EC90 with RXRβ) [nM] | formation of Treg cells (Treg cells; 1 nM) | inhibition of proliferation of breast cancer cells (breast cancer cells; 10 nM) | inhibition of proliferation of breast cancer cells (breast cancer cells; 100 nM) |
| --- | --- | --- | --- | --- | --- | --- | --- | --- | --- | --- | --- | --- | --- | --- | --- | --- |
| CCOC(=O)/C=C(C)/C=C/[C@@H]1C[C@]1(C)c1ccc2c(c1)C(C)(C)CCC2(C)C [IRX4204EE, 3,7-dimethyl-6(S),7(S)-methano,7-[1,1,4,4-tetramethyl-1,2,3,4-tetrahydronaphth-7-yl]2(E),4(E) heptadienoic ethyl ester] | less active than its parent form | even greater reduction | even greater reduction | > 1000 | less active than its parent form | very little activity | > 1000 | > 1000 | > 1000 | > 1000 | > 1000 | – | – | – | – | – |
| CC(/C=C/[C@@H]1C[C@]1(C)c1ccc2c(c1)C(C)(C)CCC2(C)C)=C\C(=O)O [IRX4204, 3,7-dimethyl-6(S),7(S)-methano,7-[1,1,4,4-tetramethyl-1,2,3,4-tetrahydronaphth-7-yl]2(E),4(E) heptadienoic acid] | – | significant reduction | significant reduction | – | – | not to transactivate; also recorded: does not activate | – | – | – | – | – | profoundly inhibits production of IL-17 | ~1 | substantially enhances the formation of Treg cells | observably inhibit the proliferation | substantial improvement in effectiveness |
